Like-named read-outs stand apart in the source and are kept apart here. Each block holds one compound with its values, some of them ahead of it.
Columns and labels:
human PGP [1] = target: T1, human PGP (Homo sapiens, UniProt P08183); test: Inhibition of human PGP-mediated [3H]-digoxin transport in 15B-J (LLC-PK1 expressing human PGP) monolayers
[2] = target: human PGP (P-glycoprotein) (Homo sapiens, UniProt P08183); test: as above; conditions: human, pH 7.2, Ketoconazole Normalized % Inhibition of Digoxin Transport, normalized to 25 μM ketoconazole
[3] = target: human PGP membranes (PGP-associated ATPase) (Homo sapiens, UniProt P08183); conditions: for ATPase Activity: orthovanadate-sensitive; for ATPase Activity, basal activity subtracted: human, 20 min
Protocol: The DMSO concentration (1.0%) was constant for all conditions within the experiment.
The test substances were incubated in the PGP membranes and supplemented with MgATP, with and without sodium orthovanadate present. Orthovanadate inhibits PGP by trapping MgADP in the nucleotide binding site. Thus, the ATPase activity measured in the presence of orthovanadate represents non-PGP ATPase activity and was subtracted from the activity generated without orthovanadate to yield ATPase activity.
(§1) ATPase assays were conducted in 96-well microtiter plates. A 0.06 mL reaction mixture containing 40 μg PGP membranes, test substance, and 4 mM MgATP, in buffer containing 50 mM Tris-MES, 2 mM EGTA, 50 mM KCl, 2 mM dithiothreitol, and 5 mM sodium azide, plus organic solvent was incubated at 37° C. for 20 minutes. […] Identical reaction mixtures containing 100 μM sodium orthovanadate were assayed in parallel. The reactions were stopped by the addition of 30 μl of 10% SDS+Antifoam A. The incubations were followed with addition of 200 μl of 35 mM Ammonium Molybdate in 15 mM Zinc Acetate: 10% Ascorbic Acid (1:4) and incubated for an additional 20 minutes at 37° C. Additionally, 0.06 mL aliquots of potassium phosphate standards prepared in the buffer described above, were incubated in the plates containing the test and control substances, with SDS and detection reagent added. The liberation of inorganic phosphate was detected by its absorbance at 800 nm and quantitated by comparing the absorbance to a phosphate standard curve. The concentration dependence of the PGP was analyzed for evidence of saturation of PGP-associated ATPase activity, and apparent kinetic parameters were calculated by non-linear regression.
as §1, with “plates.” for “plates. A 0.06 mL reaction mixture containing 40 μg PGP membranes, test substance, and 4 mM MgATP, in buffer containing 50 mM Tris-MES, 2 mM EGTA, 50 mM KCl, 2 mM dithiothreitol, and 5 mM sodium azide, plus organic solvent was incubated at 37° C. for 20 minutes.”, “activity.” for “activity, and apparent kinetic parameters were calculated by non-linear regression.”
as §1, with “plates.” for “plates. A 0.06 mL reaction mixture containing 40 μg PGP membranes, test substance, and 4 mM MgATP, in buffer containing 50 mM Tris-MES, 2 mM EGTA, 50 mM KCl, 2 mM dithiothreitol, and 5 mM sodium azide, plus organic solvent was incubated at 37° C. for 20 minutes.”

human PGP [4] = target: T1, human PGP; conditions: 15B-J vs CLA monolayers
[5] = system: CLA (control) Monolayer, LLC-PK1 cells; conditions: 10 μM in donor

T1 sequence (P08183 whole entry): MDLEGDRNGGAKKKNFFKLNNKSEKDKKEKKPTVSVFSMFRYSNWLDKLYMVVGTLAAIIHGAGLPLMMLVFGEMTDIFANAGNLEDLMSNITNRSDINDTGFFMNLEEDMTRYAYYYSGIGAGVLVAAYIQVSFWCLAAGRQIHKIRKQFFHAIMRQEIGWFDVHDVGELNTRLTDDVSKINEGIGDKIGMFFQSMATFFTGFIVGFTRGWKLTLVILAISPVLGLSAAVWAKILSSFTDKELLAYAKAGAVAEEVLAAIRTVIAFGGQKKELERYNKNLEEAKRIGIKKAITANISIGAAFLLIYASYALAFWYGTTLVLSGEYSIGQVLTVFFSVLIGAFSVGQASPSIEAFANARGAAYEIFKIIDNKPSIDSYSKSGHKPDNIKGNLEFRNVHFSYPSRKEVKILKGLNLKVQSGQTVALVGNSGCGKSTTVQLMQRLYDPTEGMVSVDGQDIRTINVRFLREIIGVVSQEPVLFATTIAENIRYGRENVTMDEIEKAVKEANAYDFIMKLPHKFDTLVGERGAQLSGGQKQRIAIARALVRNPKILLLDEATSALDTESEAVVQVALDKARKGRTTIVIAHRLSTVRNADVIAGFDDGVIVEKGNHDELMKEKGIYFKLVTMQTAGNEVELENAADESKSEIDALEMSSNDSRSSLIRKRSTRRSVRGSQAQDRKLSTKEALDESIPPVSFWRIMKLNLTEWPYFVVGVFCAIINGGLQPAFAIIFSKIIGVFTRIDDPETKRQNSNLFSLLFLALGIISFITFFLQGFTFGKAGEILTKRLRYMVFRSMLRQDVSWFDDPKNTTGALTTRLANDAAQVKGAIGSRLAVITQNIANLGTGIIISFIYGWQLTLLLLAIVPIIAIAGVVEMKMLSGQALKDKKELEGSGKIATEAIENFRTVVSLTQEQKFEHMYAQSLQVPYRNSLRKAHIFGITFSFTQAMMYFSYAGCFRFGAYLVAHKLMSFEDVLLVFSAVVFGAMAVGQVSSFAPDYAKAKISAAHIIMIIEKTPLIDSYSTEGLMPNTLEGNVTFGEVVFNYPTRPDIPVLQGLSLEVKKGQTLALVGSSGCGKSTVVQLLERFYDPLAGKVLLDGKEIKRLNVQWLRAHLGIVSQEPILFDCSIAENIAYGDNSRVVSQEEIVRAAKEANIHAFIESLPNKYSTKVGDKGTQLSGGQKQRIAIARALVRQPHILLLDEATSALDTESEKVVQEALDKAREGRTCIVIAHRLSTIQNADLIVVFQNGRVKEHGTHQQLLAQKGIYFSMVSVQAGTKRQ
Sequence of human PGP membranes (PGP-associated ATPase) (P08183 whole entry): as above
Sequence of human PGP (P-glycoprotein) (P08183 whole entry): as above

Compound: C=CCN1CC[C@]23c4c5ccc(O)c4O[C@H]2C(=O)CC[C@@]3(O)[C@H]1C5 [Naloxone, naloxone]
inhibition of PGP-mediated digoxin transport (in words) (human PGP [1]; 5 μM [3H]-digoxin, 15B-J monolayers): the inhibition was not concentration-dependent
Activity 2 (human PGP [1]; high capacity, low affinity binding site): 30 µM
Activity 1 (human PGP [1]; low capacity, high affinity binding site): 1.0 nM
inhibition at 90 min, 0.0001 μM ([2]; 0.0001 μM test substance): 6.2%
inhibition at 90 min, 0.0003 μM ([2]; 0.0003 μM test substance): 8.4%
inhibition at 90 min, 0.001 μM ([2]; 0.001 μM test substance): 10%
inhibition at 90 min, 0.01 μM ([2]; 0.01 μM test substance): -4.5%
inhibition at 90 min, 0.03 μM ([2]; 0.03 μM test substance): 5.7%
inhibition at 90 min, 0.1 μM ([2]; 0.1 μM test substance): -2.7%
inhibition at 90 min, 1 μM ([2]; 1.0 μM test substance): 7.8%
inhibition at 90 min, 3 μM ([2]; 3.0 μM test substance): -11%
inhibition at 90 min, 10 μM ([2]; 10 μM test substance): 0.4%
inhibition at 90 min, 30 μM ([2]; 30 μM test substance): 41%
inhibition at 90 min, 100 μM ([2]; 100 μM test substance): 37%
ATPase Activity ([3]; 0.001 μM test substance): -3.8 nmol/mg/min
ATPase Activity ([3]; 0.01 μM test substance): -0.8 nmol/mg/min
ATPase Activity ([3]; 0.03 μM test substance): 0.7 nmol/mg/min
ATPase Activity ([3]; 0.1 μM test substance): 3.6 nmol/mg/min
ATPase Activity ([3]; 0.3 μM test substance): -0.6 nmol/mg/min
ATPase Activity ([3]; 1.0 μM test substance): 0.4 nmol/mg/min
ATPase Activity ([3]; 3.0 μM test substance): 1.7 nmol/mg/min
ATPase Activity ([3]; 10 μM test substance): 2 nmol/mg/min
ATPase Activity ([3]; 30 μM test substance): 1.9 nmol/mg/min
ATPase Activity ([3]; 100 μM test substance): 1.8 nmol/mg/min
effect on PGP-associated ATPase activity (in words) ([3]; semi-quantitative assay): not to limit the ATPase activity

transport by human PGP (in words) (human PGP [4]): significantly transported by human PGP
ATPase Activity, basal activity subtracted ([3]; 0.007 μM): -0.3 nmol/mg/min
ATPase Activity, basal activity subtracted ([3]; 0.01 μM): -0.4 nmol/mg/min
ATPase Activity, basal activity subtracted ([3]; 0.03 μM): -0.9 nmol/mg/min
ATPase Activity, basal activity subtracted ([3]; 0.05 μM): -0.9 nmol/mg/min
ATPase Activity, basal activity subtracted ([3]; 0.1 μM): -1.6 nmol/mg/min
ATPase Activity, basal activity subtracted ([3]; 0.42 μM): 2.5 nmol/mg/min
ATPase Activity, basal activity subtracted ([3]; 1.67 μM): 11.1 nmol/mg/min
ATPase Activity, basal activity subtracted ([3]; 3.33 μM): 12.8 nmol/mg/min
ATPase Activity, basal activity subtracted ([3]; 6.67 μM): 14.4 nmol/mg/min
Compound: CC(=O)O[C@H]1C(=O)[C@@]2(C)[C@H]([C@H](OC(=O)c3ccccc3)[C@]3(O)C[C@H](OC(=O)[C@H](O)[C@@H](NC(=O)c4ccccc4)c4ccccc4)C(C)=C1C3(C)C)[C@]1(OC(C)=O)CO[C@@H]1C[C@@H]2O [Taxol, taxol]
effect on PGP-associated ATPase activity (in words) [3]: stimulates PGP-associated ATPase activity in a dose dependent manner

pmoles in Receiver ([5]; A→B, 15 min): 8.4 pmol
pmoles in Receiver ([5]; A→B, 30 min): 2.76 pmol
pmoles in Receiver ([5]; A→B, 60 min): 1.6 pmol
pmoles in Receiver ([5]; A→B, 90 min): 2.0 pmol
pmoles in Receiver ([5]; A→B, 120 min): 1.7 pmol
pmoles in Receiver ([5]; B→A, 15 min): 1.0 pmol
pmoles in Receiver ([5]; B→A, 30 min): 0.86 pmol
pmoles in Receiver ([5]; B→A, 60 min): 0.7 pmol
pmoles in Receiver ([5]; B→A, 90 min): 0.9 pmol
pmoles in Receiver ([5]; B→A, 120 min): 1.9 pmol
Compound: Cc1ccc(NC(=O)c2ccc(CN3CCNCC3)cc2)cc1Nc1nccc(-c2cccnc2)n1 [Gleevec metabolite]
